Laboratory results reported in paper PMC7536072, “Molecular and functional characterization of somatostatin-type signalling in a deuterostome invertebrate” (Open Biology, 2020).
Entries after “also recorded” stand apart in the source; their conditions may differ. Bridges are numbered along the chain shown (N, C = ends). Where no end group is shown, it is not given here.

What was measured:
ArSSR2 = assay: GFP-aequorin luminescence receptor activation assay, CHO-K1 cells, ArSSR2 + Gα16; type: cell-based, Asterias rubens
ArSSR3 = assay: GFP-aequorin luminescence receptor activation assay, CHO-K1 cells, ArSSR3 + Gα16; type: cell-based, Asterias rubens
[1] = tested on: CHO-K1 cells transfected with an empty pcDNA3.1(+) vector; assay: luminescence control assay, CHO-K1 cells transfected with empty vector; type: cell-based, Chinese hamster; details: 10^-12 to 10^-5 M (figure S12), 0.1 % Triton X-100 = 100%
Method: In order to characterize the candidate SS-type receptors, a G-protein-dependent receptor activation assay was employed. Chinese hamster ovary (CHO)-K1 cells stably overexpressing the calcium-sensitive bioluminescent reporter GFP-aequorin fusion protein (G5A) were used as a heterologous expression system. Plasmids containing A. rubens SS-type receptor cDNAs were co-transfected with the promiscuous human Gα16, which is widely used for receptor deorphanization assays. […] After 3 h incubation, a fixed volume of cells was injected sequentially into each well containing different concentrations of peptides using a FLUOstar Omega Plate Reader (BMG LABTECH, Ortenberg, Germany). Luminescence values were recorded over a 35 s period after injection. The total luminescence of each well over the 35 s period was calculated and normalized to the maximum value obtained in each experiment (100% activation) and to the value obtained with the vehicle media (0% activation). […] EC50 values were calculated from dose–response curves using Prism 6. The luminescence responses triggered by 10^−5 M ArSS1, 10^−5 M ArSS2 and vehicle media were analysed by one-way ANOVA using Bonferroni's multiple comparisons post hoc test in Prism 6. […]

[2] = tested on: apical muscle preparations from A. rubens; assay: in vitro contractility of apical muscle preparations; set-up: species or system Asterias rubens; details: data not shown
Method: Synthetic ArSS2 ([…], with a disulfide bridge between the cysteine residues) was custom synthesized (Peptide Protein Research Ltd, Fareham, UK) to enable testing of its pharmacological effects on in vitro preparations of organs/muscles from A. rubens. ArSS2 was tested for its in vitro effects on the contractility of tube foot, apical muscle and cardiac stomach preparations from at least six different specimens of A. rubens. Individual tube foot preparations were dissected from starfish arms with their corresponding ampulla intact. Then cotton ligatures were tied around the ambulacral body wall and the tube foot disc and then the external epithelium of the tube foot was scraped off using a blunt scalpel blade to facilitate penetration of peptides when tested in vitro, as described previously. Apical muscle preparations were dissected from the aboral body wall with approximately 1 cm strips of apical muscle tied at each end with cotton ligatures. Cardiac stomach preparations were dissected as described previously and then were tied at the aboral side of the cardiac stomach and around the oesophagus with cotton ligatures. […] Data collected from PowerLab were visualized as traces and analysed using LabChart (v. 8.0.7) software installed on a laptop computer (Lenovo E540, Windows 7 Professional). […]

Sequence of ArSSR3 (as listed by the source): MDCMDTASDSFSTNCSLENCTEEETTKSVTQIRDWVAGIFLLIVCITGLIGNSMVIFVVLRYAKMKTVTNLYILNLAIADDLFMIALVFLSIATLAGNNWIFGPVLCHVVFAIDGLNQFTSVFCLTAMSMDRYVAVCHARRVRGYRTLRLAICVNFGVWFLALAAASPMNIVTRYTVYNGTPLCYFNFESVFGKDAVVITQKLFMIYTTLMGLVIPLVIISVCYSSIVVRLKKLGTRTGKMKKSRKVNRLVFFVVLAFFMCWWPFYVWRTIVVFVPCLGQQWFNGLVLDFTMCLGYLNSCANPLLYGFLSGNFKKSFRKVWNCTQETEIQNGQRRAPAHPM

Sequence: RAKNARCMADFWKGRGLVDC (disulfide 7-20 (inferred)) [ArSS2]
- EC50 (ArSSR2; ArSSR2 + Gα16 in CHO-K1 cells expressing GFP-aequorin (G5A), peptide 10^−21 to 10^−4 M, luminescence over 35 s, mean of at least three independent experiments, three repeats each, read-out: half-maximal response concentration (EC50)): 0.0042 nM
- mean total luminescence response relative to background (ArSSR2; ArSSR2, 10^−5 M, background detected with assay media or with ArSS1): 166 303 times the background luminescence
- luminescence compared with control (ArSSR2; ArSSR2, 10^−5 M, vs BSA media (control) and, for ArSS2, vs ArSS1, one-way ANOVA, Bonferroni): significantly higher than the luminescence in cells exposed to ArSS1 or BSA media (control)
- triggering of luminescence (ArSSR2; ArSSR2, 10^−21 to 10^−4 M): caused dose-dependent luminescence
- EC50 (ArSSR3; ArSSR3 + Gα16 in CHO-K1 cells expressing GFP-aequorin (G5A), peptide 10^−21 to 10^−4 M, luminescence over 35 s, mean of at least three independent experiments, three repeats each, read-out: half-maximal response concentration (EC50)): 1.4 nM
- mean total luminescence response relative to background (ArSSR3; ArSSR3, 10^−5 M, background detected with assay media or with ArSS1): 46 575 times the background luminescence
- luminescence compared with control (ArSSR3; ArSSR3, 10^−5 M, vs BSA media (control) and, for ArSS2, vs ArSS1, one-way ANOVA, Bonferroni): significantly higher than the luminescence in cells exposed to ArSS1 or BSA media (control)
- triggering of luminescence (ArSSR3; ArSSR3, 10^−21 to 10^−4 M): caused dose-dependent luminescence
- luminescence response in cells with empty vector [1]: do not trigger luminscence; also recorded: Neither ArSS1 nor ArSS2 elicited responses
- effect on contractility of apical muscle preparations [2]: did not cause relaxation; also recorded: no observable effects
